Tests used:
[1] = system: extrasynaptic GABAA receptors; experiment: GABAA receptor-mediated currents evoked by focal isoguvacine or RubiGABA uncaging; format: cell-based, rat
[2] = system: OSR1; experiment: Immunoblot of OSR1 phosphorylation and expression in hippocampo-cortical slices; format: cell-based, rat; details: vs DMSO
Method: (§1) For all experiments on hippocampal cultures, neurons were pre-incubated for 2 hours with either DMSO, PCPZ or CLP257 in a CO2 incubator set at 37° C. Drugs were added directly to the culture medium. For electrophysiology experiments, neurons were also recorded in presence of these drugs in the bath. For biochemistry experiments on rat hippocampo-cortical slices, slices were incubated with either DMSO (vehicle), CLP257, PCPZ, WNK463 or sodium orthovanadate for 2 hours in interface chambers set at 37° C. For human tissue experiments, slices were pre-incubated with either DMSO, CLP257 or PCPZ for 2 hours in interface chambers set at 37° C. and then also recorded in presence of these compounds.
8-weeks old Sprague Dawley male rats were anesthetized by intraperitoneal ketamine/xylazine injection (120/10 mg/kg) and perfused transcardially with ice-cold (0-4° C.), oxygenated solution (O2/CO2 95/5%), containing (in mM): N-methyl-d-glucamine 93, KCl 2.5, NaH2PO4 1.2, NaHCO330, HEPES 20, D-glucose 20, ascorbic acid 5, sodium pyruvate 3, MgSO4 10 and CaCl2) 0.5 (300-310 mOsm, pH7.4). Brains were removed and transverse hippocampo-cortical slices (400 m thick) were prepared in the same solution using a vibratome (HM650V, Microm). Slices were then incubated for 2-hours with DMSO, the KCC2 enhancers (CLP257, PCPZ, WNK43) or sodium orthovanadate in an interface chamber containing artificial cerebrospinal fluid (ACSF) composed of (in mM): D-glucose 10, KCl 3.5, NaHOC3 26, NaH2PO4 1.25, NaCl 126, CaCl2) 1.6 and MgCl2 1.2 (290 mOsm), equilibrated with 5% CO2 in 95% 02. After the treatments, slices were washed with cold PBS, instantaneously frozen with liquid nitrogen and stored at −80° C.
Slices were mechanically lysed on ice, using a 2 mL Dounce, in a buffer containing (in mM): Tris/HCl, pH 7.5 50, EGTA 1, EDTA 1, sodium orthovanadate 1, sodium-B-glycerophosphate 10, sodium fluoride 50, sodium pyrophosphate 5, sucrose 270, benzamidine 1, phenylmethylsulfonyl fluoride 2, Triton […], (v/v) 2-mercaptoethanol 0.1% and protease inhibitors (Roche). After complete homogenization, samples were centrifuged (16,000×g at 4° C. for 10 min) and the supernatant was collected. Protein quantification was done using Pierce BCA Protein Assay kit (Thermo Scientific) with BSA as standard.
Samples were subjected to electrophoresis on polyacrylamide gradient gels (4-12% bis-tris gels) and transferred to nitrocellulose membranes. Membranes were rinsed with TBS-tween solution (TBST; Invitrogen) and blocked with 5% (w/v) skim milk. The membranes were then immunoblotted in 5% (w/v) skim milk in TBST with a primary antibody against KCC2 (rabbit, 07-432; Millipore; 1:1000), or phosphotyrosine (mouse, clone 4G10, Millipore, 1:1000), and a mouse primary antibody against neuron-specific beta-III tubulin overnight at 4° C. (clone 2G10; T8578; Sigma-Aldrich; 1:1000). They were then washed three times with distillated water, three times with TBST-milk solution and incubated for one hour at RT with goat secondary antibodies anti-rabbit IRDye 800 (1:3000; LI-COR), goat anti-mouse IRDye 700 (1:3000; LI-COR) or donkey anti-sheep DyLight 800 (1:3000; Rockland). Membranes were then washed again with TBST three times and one time with TBS. Fluorescence was detected and the relative intensities of immunoblot bands were determined using Odyssey infrared imaging system (LI-COR Bioscience). […]

[3] = system: spontaneous interictal-like discharges (IIDs) in slices from mTLE patients; experiment: Multielectrode array recording of postoperative hippocampal-subicular slices from mTLE patients; format: cell-based, human; details: for effect on proportion of slices displaying IIDs: p<0.05
Method: as §1
Patients or their legal guardians gave informed consent to participate in the study. Patients ([…], 3 males, 4 female, age range: 16-54 years) diagnosed with mesial temporal lobe epilepsy with hippocampal sclerosis underwent multimodal preoperative neurological, neurophyschological and psychiatric evaluations as well as video-electroencephalographic recording, magnetic resonance imaging and fluorodeooxyglugose positron emission tomography. Cortectomies were performed at Sainte-Anne Hospital by neurosurgeons B. Devaux and B. Turak and at Pitié-Salpêtriére Hospital by neurosurgeons S. Clemenceau and B. Mathon. Cortical specimens collected in the operating room were immediately transported in ice-cold (0-4° C.), oxygenated solution (O2/CO2 95/5%), containing (in mM): N-methyl-d-glucamine 93, KCl 2.5, NaH2PO4 1.2, NaHCO3 30, HEPES 20, D-glucose 20, ascorbic acid 5, sodium pyruvate 3, MgSO4 10 and CaCl2 0.5 (300-310 mOsm, pH7.4) and transported within 15 minutes to the laboratory. Transverse hippocampal-subicular slices (400 m thick) were prepared in the same solution using a vibratome (HM650V, Microm). They were maintained for 20-30 minutes at 37° C. and then at room temperature in an interface chamber containing artificial cerebrospinal fluid (ACSF) composed of (in mM): D-glucose 10, KCl 3.5, NaHOC3 26, NaH2PO4 1.25, NaCl 126, CaCl2 1.6 and MgCl2 1.2 (290 mOsm), equilibrated with 5% CO2 in 95% 02.
Multielectrode array recordings were performed using a MEA2100 station (Multi Channel Systems) equipped with a 120-microelectrode array chamber (custom 12×10 layout, 30 μm TiN electrodes spaced 1 mm vertical and 1.5 mm horizontal). Slices were maintained in the recording chamber using a home-made platinum-nylon harp and superfused with pre-warmed (37° C.) oxygenated ACSF at a rate of 6 ml/min. Slices were imaged using a video-microscope table (MEA-VMT1, Multi Channel Systems) in order to register the location of electrodes with respect to the slice. Extracellular signals were acquired at a sampling rate of 10 kHz using Multi Channel Experimenter (Multi Channel Systems) and analyzed offline using homemade software (Matlab, The Mathworks).

[4] = 100 μM CLP257, 2 h, slices from 5 out of 6 patients
[5] = 100 μM CLP257, 2 h, slices from the remaining patient

| Structure (SMILES) | decay time constant of GABAA receptor-mediated currents ([1]; 100 μM CLP257, RubiGABA 30 μM, control 124.39±9.12) [ms] | amplitude of GABAA receptor-mediated currents ([1]; 100 μM CLP257, RubiGABA 30 μM, control 164.70±4.56) [pA] | change of OSR1 phosphorylation (S325 residue) ([2]; 100 μM CLP257, 2 h) | change of total expression of OSR1 ([2]; 100 μM CLP257, 2 h) [%] | patients whose slices showed reduced IID frequency ([3]; 100 μM CLP257, 2 h) | change of IID amplitude [3, 4] | reduction of IID frequency [3, 4] [%] | change of IID amplitude [3, 5] [%] | change of IID frequency [3, 5] | effect on proportion of slices displaying IIDs ([3]; 100 μM CLP257, 2 h incubation vs DMSO) | decay time constant of GABAA receptor-mediated currents ([1]; acute 10 μM PCPZ, isoguvacine 100 μM, control 127.66±10.23) [ms] | amplitude of GABAA receptor-mediated currents ([1]; acute 10 μM PCPZ, isoguvacine 100 μM, control 150.73±17.50) [pA] | change of OSR1 phosphorylation (S325 residue) ([2]; 10 μM PCPZ, 2 h) | change of total expression of OSR1 ([2]; 10 μM PCPZ, 2 h) | mTLE patients whose slices showed suppressed IIDs ([3]; 10 μM PCPZ, 2 h) | change of IID amplitude ([3]; 10 μM PCPZ, 2 h, group I (5 mTLE patients)) | reduction of IID frequency ([3]; 10 μM PCPZ, 2 h, group I (5 mTLE patients, responders)) [%] | change of IID amplitude ([3]; 10 μM PCPZ, 2 h, group II (2 patients)) | change of IID frequency ([3]; 10 μM PCPZ, 2 h, group II (2 patients, non-responders)) | effect on proportion of slices displaying IIDs ([3]; 10 μM PCPZ, 2 h incubation vs DMSO) |
| --- | --- | --- | --- | --- | --- | --- | --- | --- | --- | --- | --- | --- | --- | --- | --- | --- | --- | --- | --- | --- |
| O=C1N=C(N2CCCCN2)S/C1=C\c1ccc(F)cc1O [CLP257, (5Z)-5-[(4-Fluoro-2-hydroxyphenyl)methylene]-2-(tetrahydro-1-(2H)-pyridazinyl)-4(5H)-thiazolone] | 218.22 ± 21.05 | 162.04±6.62 | +11.50±18.50% | −2.24±8.27 | 5 out of 6 | +134.4% | 96.5±2.31 | −24.5 | +12.6% | significantly reduced | – | – | – | – | – | – | – | – | – | – |
| CN1CCN(CCCN2c3ccccc3Sc3ccc(Cl)cc32)CC1 [PCPZ, prochlorperazine] | – | – | – | – | – | – | – | – | – | – | 130.81 ± 10.48 | 157.51±25.46 | +11.80±23.50% | +26.3±12.8% | 5 out of 7 | +9.0% | 97.55±13.8 | +18.2±4.8% | +25.5±15.9% | significantly reduced |

From patent US20240197728A1, “METHODS AND PHARMACEUTICAL COMPOSITIONS FOR TREATING REFRACTORY EPILEPSY” (INSERM (INSTITUT NATIONAL DE LA SANTÉ ET DE LA RECHERCHE …, priority 2021, published 2024)
